From patent publication US10105384B2, “Nucleic acids targeting TCTP for use in the treatment of chemo- or hormone-resistant cancers” (INSTITUT NATIONAL DE LA SANTE ET DE LA RECHERCHE MEDICALE …, priority 2010, dated 2018)

These molecules were tested on TCTP (assay: ASO sequences screening: TCTP expression by western blot and/or qRT-PCR). Conditions: WB and/or qRT-PCR, PC-3 cells overexpressing TCTP.
Type: cell-based, human
Method: Western Blot analysis was performed as described previously (Rocchi et al., 2004, Cancer Res. 64:6595-602) with 1:5000 rabbit anti-Hsp27 polyclonal antibody (Assay Designs, Villeurbanne, France), 1:2000 rabbit TCTP polyclonal antibody (Abcam Inc., Cambridge, UK), 1:250 rabbit anti-MSL1v1 polyclonal antibody (Abcam Inc.), 1:500 mouse anti-ubiquitin monoclonal antibody (Santa Cruz Biotechnology Inc., Heidelberg, Germany) or 1:1000 rabbit anti-caspase-3 polyclonal antibody (Cell Signalling Technology Inc., Danvers, USA). Loading levels were normalized using 1:5000 rabbit anti-glyceraldehyde-3-phosphate dehydrogenase polyclonal (Abcam Inc.) or 1:2500 mouse anti-vinculine monoclonal antibodies (Sigma Chemical Co., St Louis, Mo., USA).
The quantitative reverse transcription polymerase chain reaction (qRT-PCR) analysis was done on a LightCycler detection system (Roche Applied Science, Meylan, France). Expression levels of 18S subunit of the ribosome gene were used as an internal control. First strand cDNA was synthesized from 1 μg of total RNA using random hexamers and expanded by reverse transcriptase according to the manufacturer's instructions (ImProm-II Reverse Transcription System, Promega, Charbonniéres-les-Bains, France), subsequently diluted 1:10 with water, and stored at −20° C. until use. TCTP and 18S polymerase chain reaction (PCR) products were detected by quantitative real time PCR (qRT-PCR) using the SYBR Premix Ex Taq (Takara Bio Inc, St Germain en Laye, France) following the manufacturer's instructions. Five microliters of diluted cDNA template were mixed with 10 μl SYBR Premix Ex Taq (including Taq polymerase, reaction buffer, MgCl2, SYBR green I dye, and deoxynucleotide triphosphate mix) and 0.4 μM forward and reverse primers, in a final volume of 20 μl. The following primers were used: TCTP forward 5′-[…]-3′ (SEQ ID NO: 8) and TCTP reverse 5′-[…]-3′; (SEQ ID NO: 9); 18S forward 5′-[…]-3′ (SEQ ID NO: 10) and 18S reverse 5′-[…]-3′ (SEQ ID NO: 11). After an initial Taq activation for 10 seconds at 95° C., Light Cycler PCR was done using 55 cycles with the following cycling conditions: 95° C. for 5 seconds, 58° C. for 7 seconds, and 72° C. for 14 seconds. Each sample was analyzed in duplicate and the experiment was repeated three times. Results were analyzed using RealQuant data analysis software (Roche, Neuilly-sur-seine, France). The results analysis was done with the 2(-Delta Delta C(T)) Method (Livak K J. et al., 2001; Methods. 25:402-8).
In order to find a sequence ASO having an inhibiting effect on TCTP expression, 30 ASO sequences have been designed 26 of which are shown in table 1. Said 30 sequences cover the TCTP mRNA (accession number NM_003295). Using BLAST program, the specificity of said sequences has been studied. Among said 30 sequences, only 15 sequences have been identified as being specific for TCPT mRNA sequence (see table 1). The effect of said ASO sequences on TCTP expression was tested by western blot analysis (WB) and/or by quantitative reverse transcription polymerase chain reaction (qRT-PCR) on PC-3 cells overexpressing TCTP. WB and qRT-PCR were performed as exposed in example 1.

| Molecule | ability to inhibit TCTP expression |
| --- | --- |
| GTTTCCCTTTGATTGATTTC (listed as DNA, chemistry not fully specified) [ASO18] | strong ability to inhibit TCTP expression |
| GTCATAAAAGGTTTTACTCT (listed as DNA, chemistry not fully specified) [ASO28] | strong ability to inhibit TCTP expression |
| ACCAGTGATTACTGTGCTTT (listed as DNA, chemistry not fully specified) [ASO13] | strong ability to inhibit TCTP expression |
| TTCTGGTCTCTGTTCTTCAA (listed as DNA, chemistry not fully specified) [ASO19] | strong ability to inhibit TCTP expression |
| CTTGTAGGCTTCTTTTGTGA (listed as DNA, chemistry not fully specified) [ASO16] | strong ability to inhibit TCTP expression |
| TAATCATGATGGCGACTGAA (listed as DNA, chemistry not fully specified) [ASO4] | strong ability to inhibit TCTP expression |
| TTAACATTTCTCCATTTCTA (listed as DNA, chemistry not fully specified) [ASO26] | strong ability to inhibit TCTP expression |
| AGAAAATCATATATGGGGTC (listed as DNA, chemistry not fully specified) [ASO24] | strong ability to inhibit TCTP expression |
| GAAATTAGCAAGGATGTGCT (listed as DNA, chemistry not fully specified) [ASO30] | strong ability to inhibit TCTP expression |
| ATGTAATCTTTGATGTACTT (listed as DNA, chemistry not fully specified) [ASO17] | strong ability to inhibit TCTP expression |

What follows are molecules tested on PC-3 tumors (assay: PC-3 tumor growth in vivo in athymic nude mice). Conditions: PC3 xenografted nude mice, 10th week of treatment.
Method: Approximately 3.10^6 PC-3 cells and 10.10^6 LNCaP cells were inoculated subcutaneously with 0.1 mL of Dulbecco's Modified Eagle's Medium (Invitrogen) supplemented with 10% FCS for PC-3 or with 0.1 mL of Matrigel (BD Biosciences Discovery Labware) for LNCaP in the flank region of 4-week-old male athymic nude mice (Charles River, L'Arbresle, France) via a 23-gauge needle. When PC-3 tumors reached 50 mm^3, usually 3 to 4 weeks after injection, mice were randomly selected for treatment with TCTP ASO alone, scrambled ASO alone, TCTP ASO plus docetaxel or scrambled ASO plus docetaxel. Mice bearing LNCaP tumors between 200 and 300 mm^3 in volume were castrated via scrotal approach and randomly assigned to a treatment arm. Mice were treated beginning 1 week after castration with TCTP ASO or control ASO alone and serum PSA measurements were done weekly. For both experiments, each experimental group consisted in 10 mice and the tumor volume measurements were performed once weekly and calculated by the formula length×width×depth×0.5236 (Gleave et al., 1999, Clin Cancer Res 5:2891-8). After randomization, 10 mg/kg TCTP or scrambled ASO was injected intraperitoneally (i.p) once daily for 60 days for ASO monotherapy groups and 90 days for the ASO plus docetaxel groups. A total of 35 mg/kg docetaxel was administrated i.p. three times per week from days 7 to 14. Tumor volume measurements were performed once weekly and calculated by the formula length×width×depth×0.5236 (20). Data points were expressed as average tumor volume levels +/−standard error (SE). All animal procedures were performed in accordance with protocols approved by French laws and the European directives and with appropriate institutional certification.
We next evaluated the effects of TCTP ASO treatment on the growth of PC-3 tumors in vivo (FIG. 8). Male nude mice bearing PC-3 tumors (50 mm^3) were randomly selected for TCTP ASO versus scrambled ASO and 10 mg/kg ASO were administrated once daily by i.p. injection for […]. From days 7 to 14, 30 mg/kg of docetaxel was administrated i.p. 3 days in the week. Mean tumor volume was similar in all groups before therapy.
TCTP inhibition was evaluated in nude mice xenografted with the PC3 CRPC cell line. The animals were treated in an everyday basis and for a period of two months by peritoneal injection of ASO or control TCTP once their tumor volume was 200-300 mm^3. In order to evaluate the additive anticancer activity of ASO TCTP, mice were treated with docetaxel (33 mg/kg) by peritoneal injection three times per week for one week prior to ASO or control TCTP injections. For all experiments, the average tumor volume was measured once a week.

| Molecule | tumor volume |
| --- | --- |
| 5′-CGTGTAGGTACGGCAGATC-3′ (listed as DNA, chemistry not given here) [ASO scrambled, reference compound] | over 1500 mm^3 |

Each molecule was assayed on PC-3 cells (assay: Flow cytometry of propidium iodide-stained nuclei (apoptosis, cell cycle), PC-3 cells). Conditions: PC-3, docetaxel treatment.
Type: cell-based, human
Method: Flow cytometry of propidium iodide-stained nuclei was performed as described previously (Rocchi et al., 2004, Cancer Res. 64:6595-602). In brief, PC-3 cells were plated at the density of 10^6 cells into 10 cm dishes in DMEM supplemented with 10% FCS. To assess the effect of TCTP inhibition on apoptosis and cell cycle, cells were treated the day after seeding with 5 nM of siRNA TCTP or control and 100 nM of ASO TCTP or scrambled control for 48 h. Cells were then treated with 50 nM of docetaxel. After 24 h, the cells were analyzed for relative DNA content on a dual laser flow cytometer (FACSCalibur, Becton Dickinson Biosciences, Le Pont de Claix, France). Each assay was performed in triplicate.
Flow cytometry was used to quantify the percentage of cells in each cell cycle phase three days after the siRNA treatment. After the treatment of PC-3 cells with 5 nM TCTP siRNA for 1 day, the fraction of cells undergoing apoptosis (sub-G1/G0 fraction) was 25% higher after treatment with 5 nM TCTP siRNA compared with scrambled control siRNA (**, P≤0.01; FIG. 6, upper panel). Using TCTP ASO treatment alone, we found an increase of 75% in sub-G0G1 fraction (***, P≤0.001; FIG. 6, middle and bottom panel), enhanced by the 50 nM docetaxel treatment (90% in sub-G0-G1 fraction, ***, P≤0.001). […] The fraction of PC-3 in S phase was 20 to 40% lower after TCTP siRNA or ASO treatments respectively compared to the scrambled controls (FIG. 6). […] The rate of apoptotic PC-3 cells after TCTP silencing with different ASO concentrations was explored with the Invitrogen countess (FIG. 6 and FIG. 7A). PC-3 cells were treated with 70, 100 or 200 nM of TCTP ASO or control. Cells were harvested 3 days after treatment and […] of trypan blue was added before analysis with Invitrogen Countess. […] Moreover, TCTP has been reported to interact with caspase-3, thereby inhibiting caspase-3 activation (Gnanasekar et al., 2009, Int J Oncol. 34:1241-6). In order to investigate the effect of TCTP silencing on caspase-3 cleavage and activity, PC-3 cells were treated daily with 100 nM TCTP or scrambled ASO for 2 days. Cells were harvested 2 days after and proteins were extracted for western blotting with a caspase-3 antibody that recognizes both full-length and cleaved caspase-3.
PC3 cells were transfected with a TCTP siRNA of SEQ ID NO: 3. Cell proliferation and apoptosis were studied using respectively MTT (3-(4,5-dimethylthiazol-2-yl)-2,5-diphenyl tetrazolium bromure) assay and flow cytometry.
PC3 cells were transfected with a TCTP ASO of SEQ ID NO: 2. Cell proliferation and apoptosis were studied using respectively MTT assay and flow cytometry.

| Molecule | fraction of cells in S phase | fraction of cells undergoing apoptosis |
| --- | --- | --- |
| CC(=O)O[C@@]12CO[C@@H]1C[C@H](O)[C@@]1(C)C(=O)[C@H](O)C3=C(C)[C@@H](OC(=O)[C@H](O)[C@@H](NC(=O)OC(C)(C)C)c4ccccc4)C[C@@](O)([C@@H](OC(=O)c4ccccc4)[C@H]21)C3(C)C [docetaxel, reference compound] | without changing the fraction of cells in S phase | increased the fraction of cells undergoing apoptosis |
